Test results: patent US20110038856A1, “METHODS OF TREATING NEOPLASTIC, AUTOIMMUNE AND INFLAMMATORY DISEASES” (Seattle Genetics, Inc., priority 2006, published 2011)

Tests used:
[1] = test system: HEL 92.1.7 cells; assay: Complement-dependent cytotoxicity (CDC) on MDR+ CD33-positive AML cell line; format: cell-based, human; conditions: HEL 92.1.7 cells; FIG. 4
Description: The purpose of this study was to determine whether the cytotoxic effects of an anti-CD33 antibody (HuM195) on AML cells could be enhanced by combination treatment with chemotherapeutic drugs. An MDR^+, CD33-positive AML cell line (HEL 92.1.7) was either untreated or preincubated with the indicated concentrations of thalidomide or 5-azacytidine for two hours prior to exposure to the anti-CD33 Ab. Cytotoxic activity was measured using a complement-dependent cytotoxicity (CDC) activity.

[2] = test system: human CD14+ monocytes; assay: Cytokine/chemokine production by primary human CD14+ monocytes; format: cell-based
[3] = test system: primary human macrophages; assay: Macrophage migration in response to chemoattractants (CytoSelect Cell Migration Assay); format: cell-based
Description: (§1) The migration of macrophages in response to challenge with plating media containing 10% human serum, 20% conditioned tumor cell media, or 50 ng/ml TGF-β, VEGF, TNF-α, or IFN-γ was evaluated using the CytoSelect Cell Migration Assay (Cell Biolabs, San Diego, Calif.). […] The study was stopped 18 hours later and migration was evaluated after dissociation of the cells from the membrane followed by detection with Cyquant GR dye.
as §1, with “serum or” for “serum,”, “media” for “media, or 50 ng/ml TGF-β, VEGF, TNF-α, or IFN-γ”, “studies were” for “study was”, “h” for “hours”

[4] = test system: KG-1 AML cell line; assay: Cytokine production by KG-1 AML cell line; format: cell-based; conditions: 2.5 μg/ml pre-treatment, then 1 ng/ml TNF-alpha; media harvested 18 h later; versus control antibody
Description: Media was harvested 18 h later for cytokine analyses.

[5] = test system: HL-60 cells; assay: Mouse AML model, HL-60 cells injected intravenously; format: in vivo, mice; conditions: q4d×5, ip, FIG. 24
Description: Mice were implanted with an AML cell line, HL-60, as follows: 5 million HL-60 cells were injected intravenously. The mice were treated with lintuzumab (10 mg/kg, q4d×4, ip), cytarabine (1 mg/kg, 5 mg/kg or 25 mg/kg, q1d×10, or 50 mg/kg or 100 mg/kg, q2d×5, ip) or lintuzumab with cytarabine (dosed as described previously). Treatment began on day one.
To confirm the data of the in vitro study, mice were implanted with an AML cell line, HL-60, as follows: 5 million HL-60 cells were injected intravenously. […] Treatment began on day one.

[6] = test system: primary human macrophages
Description: (§2) Macrophages were harvested, counted, and cultured in 96-well plates at 35,000 cells per well. G-CSF-mobilized CD14^+ monocytes (Cambrex) were cultured in 96-well plates at 100,000 cells per well (adherent cells) in sterile polypropylene dishes (non-adherent cells).

[7] = test system: primary human CD14+ monocytes
Description: as §2

[8] = test system: patients with relapsed and refractory acute myeloid leukemia (AML); conditions: low dose with infrequent administration; cited from earlier work
[9] = molecular target: T1, CD33 (Homo sapiens, UniProt P20138); assay: CD33 tyrosine phosphorylation in CD33-positive AML lines (CD33 immunoprecipitation, anti-phosphotyrosine Western blot); format: cell-based; parameters: endogenous in cells; host or cells: HL-60 (ATCC); primary human CD14+ monocytes (Cambrex); macrophages derived from human PBMCs
Description: CD33-positive cell lines were treated with anti-CD33 antibodies (lintuzumab and certain commercially available antibodies). Cell extracts were prepared and CD33 was immunoprecipitated using an anti-CD33 antibody (MY9 clone; Beckman Coulter, Calif.). Western blotting was performed with an anti-phosphotyrosine antibody (4G10; Upstate Biotechnologies, Inc., Lake Placid, N.Y.). […] Two forms of CD33 were detected (due to either splicing of CD33 mRNA or post-translational modification of CD33).

[10] = molecular target: T1, CD33; assay: Recruitment of SHP phosphatases / Syk to CD33 in HL-60 cells (immunoprecipitation, Western blot); format: cell-based; parameters: endogenous in cells; host or cells: HL-60 (ATCC); primary human CD14+ monocytes (Cambrex); macrophages derived from human PBMCs
Description: To determine whether the humanized M195 antibody also recruits SHP phosphatases, HL-60 cells were treated with soluble or cross-linked anti-CD33 antibodies. Cell extracts were prepared and CD33 was immunoprecipitated with an anti-CD33 antibody (MY9 clone). Western blotting was performed with an anti-SHP-1 antibody (sc-287; Santa Cruz Biotechnology, Inc., Santa Cruz, Calif.).

[11] = molecular target: T1, CD33; assay: SGN-33 signaling in HL-60 cells, primary human monocytes and macrophages (CD33 immunoprecipitation, Western blot); format: cell-based; parameters: endogenous in cells; host or cells: HL-60 (ATCC); primary human CD14+ monocytes (Cambrex); macrophages derived from human PBMCs
Description: Deglycosylation was confirmed by CE-SDS. […] Cell lysates were prepared and CD33 immunoprecipitated using an anti-CD33 rabbit polyclonal antibody (Santa Cruz Biotechnology, Santa Cruz, Calif.) prior to SDS PAGE gel electrophoresis. Western blot analyses of these samples were performed using the 4G10 phosphotyrosine antibody (Upstate Biotechnology, Temucula, Calif.), anti-CD33 antibody (NovoCastra, Norwell, Mass.), and anti-SHP-1 antibody (Calbiochem, San Diego, Calif.). Control lysate for SHP-1 was prepared from a B cell lymphoma cell line.

[12] = HL-60 AML cells and primary human monocytes or macrophages, soluble SGN-33, 30 minutes, FIG. 15

T1 sequence (P20138 18-364): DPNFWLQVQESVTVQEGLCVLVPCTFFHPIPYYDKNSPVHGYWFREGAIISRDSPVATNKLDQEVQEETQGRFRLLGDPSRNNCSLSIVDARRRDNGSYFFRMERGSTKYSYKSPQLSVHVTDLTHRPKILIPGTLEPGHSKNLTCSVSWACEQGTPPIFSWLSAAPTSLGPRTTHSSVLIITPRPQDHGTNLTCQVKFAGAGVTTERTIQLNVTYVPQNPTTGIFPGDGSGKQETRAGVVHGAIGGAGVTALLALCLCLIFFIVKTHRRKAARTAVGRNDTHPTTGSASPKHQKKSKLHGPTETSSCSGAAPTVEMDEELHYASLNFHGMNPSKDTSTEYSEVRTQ

In the case of “SGN-33: anti-CD33 antibody, a humanized version of mouse monoclonal antibody M195”, the “lysis of AML cells (CDC activity)” value [1] is reported as “increased lysis of AML cell lines in a dose-dependent manner”, the “production of IL-6, TNF-α, MCP-1, IL-8, and RANTES” value ([2]; CD14+ primary human monocytes activated with IFN-γ, previous studies (Example 3)) is reported as “significantly reduced” and the “level of RANTES” value ([2]; adherent CD14+ monocytes, IFN-γ stimulated, FIG. 10) is reported as “reduced”. For the same substance, the “level of RANTES” value ([2]; adherent CD14+ monocytes, RPMI-8228 conditioned media stimulated, FIG. 11) was “reduced”, the “level of TNF-α” value ([2]; adherent CD14+ monocytes, basal level, FIG. 11) was “reduced the basal level” and the “levels of IL-6, MCP-1, TNF-α, and IL-8” value ([2]; adherent CD14+ monocytes, basal levels and IFN-γ stimulated levels, 48 hours, FIG. 10) was “reduced”. For the same substance, the “levels of IL-6, MCP-1, and IL-8” value ([2]; adherent CD14+ monocytes, basal levels and RPMI-8228 conditioned media stimulated levels, FIG. 11) was “reduced”, the “levels of IL-6, IL-8, TNF-α and MCP-1” value ([2]; non-adherent CD14+ monocytes upon exposure to SGN-33, FIG. 12) was “small increases” and the “production of cytokines, chemokines and growth factors” value ([2]; non-adherent CD14+ monocytes, IFN-γ, FIG. 12) was “not inhibited”. The “levels of IL-6, MCP-1, IL8 and RANTES” value ([2]; non-adherent CD14+ monocytes, stimulated by RPMI-8226 conditioned media, FIG. 12) was “reduced”, the “IFN-γ-stimulated production of IL-10, IL-10, IL-12, and MIP-1α” value ([2]; primary human monocytes treated 1 hr prior to IFN-γ, supernatants 18 h later, p<0.001, FIG. 19) was “significantly reduced” and the “levels of TNF-α” value ([2]; primary human monocytes, various doses of SGN-33, 1 hr prior to IFN-γ, 18 h, p<0.05, FIG. 20) was “significantly reduced levels of TNF-α in a dose-dependent manner”. For the same substance, the macrophage migration ([3]; 10% human serum or 20% conditioned media from RPMI 8226 cells, p<0.05, FIG. 21) was “significantly reduced”, the “blocking of macrophage migration” value ([3]; SGN-33 added to neuraminidase-treated macrophages, versus neuraminidase alone, FIG. 14C) was “greater blocking effect” and the “movement of the macrophages toward chemoattractants” value ([3]; cells pre-treated, 10% serum or conditioned medium, FIG. 14B) was “significantly reduced”. The migration of macrophages ([3]; in response to conditioned tumor cell media, TGF-β, VEGF, TNF-α, and IFN-γ) was “significantly opposed the migration”, the “production of IL-8, IP-10, M11b, RANTES, and MCP-1” value [4] was “reduced the production” and the survival rate ([5]; SGN-33 30 mg/kg) was ~85%. The survival rate ([5]; SGN-33 3 or 10 mg/kg) was ~50%, the cell viability [6] was “without interfering with cell viability” and the cell viability [7] was “not due to an adverse effect”. For the same substance, the blast cells [8] was “induced significant reductions in blast cells”, the “CD33 tyrosine phosphorylation, soluble versus cross-linked antibody” value ([9]; HL-60 and U937 cells, FIG. 2) was “more effective than cross-linked antibody” and the CD33 tyrosine phosphorylation ([9]; HL-60 and U937 cells, soluble or cross-linked antibody, compared with control human IgG1, FIG. 2) was “stimulated CD33 tyrosine phosphorylation”. The CD33 tyrosine phosphorylation ([9]; HL-60 cells, both soluble and cross-linked antibody, FIG. 1) was “stimulated CD33 tyrosine phosphorylation”, the “recruitment of SHP-2” value ([10]; data not shown) was “did not recruit” and the “recruitment of Syk” value ([10]; data not shown) was “did not recruit”. The “recruitment of SHP-1 to CD33” value ([10]; soluble or cross-linked antibody, FIG. 3) was “recruited SHP-1 to CD33”, the “phosphorylation of CD33” value [11, 12] was “resulted in phosphorylation of CD33” and the “recruitment of SHP-1” value [11, 12] was “recruitment of SHP-1”. For the same substance, the “recruitment of SHP-1 to the CD33 complex” value ([11]; HL-60 and monocytes, 30 minutes, FIG. 16) was “resulted in recruitment of SHP-1”, the “time to phosphorylation of CD33 and recruitment of SHP-1” value ([11]; HL-60 cells, 3 μg/ml soluble SGN-33, FIG. 17) was ≤ 5 min and the “strength of the phosphorylation response (signal on western blot)” value ([11]; primary monocytes compared to HL-60 or primary macrophages, opposite for SHP-1 signal, FIG. 15) was “appeared to be stronger in primary monocytes”.
